The values that follow come from paper PMC10327518 (Journal of Enzyme Inhibition and Medicinal Chemistry, 2023).

For orientation: inhibition means the share of the control response that was lost under treatment. What is called IC50 is the concentration that gives 50% inhibition. As usually defined, the viability is a read-out of living cells in per cent, often relative to untreated cells.

The structures appear in SMILES notation. Values joined by “and” are separate entries in the source; they are usually repeats but may differ in a detail not shown here. Equal values may be shown once. Read-outs that look alike come from different tables or passages of the source.

For series [1], the target named is T1, eeAChE (electric eel AChE) (Electrophorus electricus, UniProt O42275).
T1 construct: purchased Sigma-Aldrich Co; host or cells: electric eel (natural source)
T1 sequence (O42275 24-633): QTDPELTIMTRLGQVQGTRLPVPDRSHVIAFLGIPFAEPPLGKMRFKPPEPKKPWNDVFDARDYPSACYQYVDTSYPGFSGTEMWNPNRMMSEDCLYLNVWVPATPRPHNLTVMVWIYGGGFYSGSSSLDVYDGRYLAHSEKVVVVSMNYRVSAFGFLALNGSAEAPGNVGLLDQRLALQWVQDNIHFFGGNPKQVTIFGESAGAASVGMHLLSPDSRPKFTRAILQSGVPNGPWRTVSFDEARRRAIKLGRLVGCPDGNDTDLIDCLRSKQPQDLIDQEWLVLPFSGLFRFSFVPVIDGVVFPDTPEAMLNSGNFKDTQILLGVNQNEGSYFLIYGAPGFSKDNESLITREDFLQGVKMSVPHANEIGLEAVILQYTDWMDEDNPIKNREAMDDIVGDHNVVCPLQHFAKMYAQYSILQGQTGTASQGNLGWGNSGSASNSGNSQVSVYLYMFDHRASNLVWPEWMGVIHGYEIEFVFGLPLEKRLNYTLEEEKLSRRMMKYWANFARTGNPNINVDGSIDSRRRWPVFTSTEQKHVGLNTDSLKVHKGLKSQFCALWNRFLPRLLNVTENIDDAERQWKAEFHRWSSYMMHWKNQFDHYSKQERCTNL
Briefly: biochemical. The following applies: for inhibition at 25 µM: read-out: Inhibition percent rate eeAChE. The procedure:
(§1) 2.1 Inhibition experiments of AChE and BuChE. The modified Ellman method was
(§2) performed to test the AChE and BChE inhibitory ability of the compounds, using
(§3) eeAChE and eqBChE (Sigma-Aldrich Co.). […]

The target of series [2] is T2, eqBuChE (equine serum BuChE) (Equus caballus, UniProt P81908).
T2 construct: purchased Sigma-Aldrich Co; host or cells: equine serum (natural source)
T2 sequence (P81908 whole entry): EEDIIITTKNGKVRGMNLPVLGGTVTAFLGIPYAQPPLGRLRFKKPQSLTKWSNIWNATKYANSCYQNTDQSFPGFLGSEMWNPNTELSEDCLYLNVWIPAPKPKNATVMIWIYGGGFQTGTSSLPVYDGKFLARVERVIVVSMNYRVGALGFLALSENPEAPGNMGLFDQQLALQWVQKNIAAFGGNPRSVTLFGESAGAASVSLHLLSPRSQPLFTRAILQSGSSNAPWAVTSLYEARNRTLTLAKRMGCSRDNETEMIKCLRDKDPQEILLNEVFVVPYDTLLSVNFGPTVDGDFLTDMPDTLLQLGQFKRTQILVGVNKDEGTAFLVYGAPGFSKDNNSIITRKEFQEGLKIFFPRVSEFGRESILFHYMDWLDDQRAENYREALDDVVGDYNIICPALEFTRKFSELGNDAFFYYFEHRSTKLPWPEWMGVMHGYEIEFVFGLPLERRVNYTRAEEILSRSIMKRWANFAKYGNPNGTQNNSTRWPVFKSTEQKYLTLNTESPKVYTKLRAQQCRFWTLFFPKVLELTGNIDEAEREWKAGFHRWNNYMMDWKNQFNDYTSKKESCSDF
Briefly: biochemical. The following applies: for inhibition at 25 µM: read-out: Inhibition percent rate eqBuChE; for SI: SI = IC50 (AChE)/IC50 (BuChE). As to the method:
as §1, §2, §3

For series [3], the system named is scopolamine-induced cognitive dysfunction in mice. Briefly: Step-down passive avoidance task, scopolamine-induced cognitive dysfunction. The format is in vivo. The procedure:
The in vivo effects of 5a were determined through the step-down passive avoidance task. […]. page 9: […]
Assay method. The step-down passive avoidance task was employed to investigate
the effects of 5a on scopolamine-induced memory impairment.21,22 Sixty mice were
random divide into six groups. […]

The target of a further series is T3, eqBuChE (Equus caballus, UniProt P81908).
T3 construct: purchased Sigma-Aldrich Co; host or cells: equine serum (natural source)
T3 sequence (P81908 whole entry): as above
The format is biochemical, equine. The text has this: Further, the recovery capability of BuChE inhibitory effect after dilution was monitored by time.
Figure 2.

For the next series, the target named is cholinesterase. Set-up: method as in PMID 11429429. The following applies: read-out: IC50 anticholinesterase activity; cited from earlier work.
For series [4], the system named is Aβ25-35-induced PC12 cell injury. Briefly: cells. The following applies: Rattus norvegicus, PC-12, read-out: PC12 cells viability.
Text: (§4) 2.3 Neuroprotective effects on Aβ25-35-induced PC12 cells injury.
(§5) (1) Materials and reagents. PC12 cell (Purchased from the Cell Bank of Shanghai
(§6) Institute of Cell Biology, Chinese Academy of Sciences),
(§7) DME H-21 4.5g/Liter Glucose(Gibco), Fetal bovine serum (Vicente),
(§8) cellcountingkit-8, CCK8(Shanghai Biyuntian Biotechnology Co. , Ltd), 1%
(§9) penicillin-streptomycin (Double antibody, cellmax), Double antibody (Beijing
(§10) Co., Ltd), a phosphate -buffered solution , (PBS, Beijing Solebao Technology Co., Ltd),
(§11) (2) Istrument. Cell culture incubator(Thermo Scientific), Ultra-clean
(§12) workbench(Jiangsu Sujing Group Co., Ltd), Inverted phase-contrast fluorescence
(§13) microscope(Japan Nikon Corporation), Varioska full-wavelength multifunction
(§14) microplate reader(Thermo Scientific), Digital display constant temperature water bath
(§15) pot(Bangsi Instrument Technology Co., Ltd), 1/100,000 electronic balance(Shanghai
Jinghai Instrument Co., Ltd).
(§16) In this experiment, the cell viability was detected using CCK-8 kit and
(§17) (3) PC12 Cell complete medium formulation. Recover PC12 cells, use 10% fetal
(§18) bovine serum 50mL, 5% equine serum 25mL and 1% penicillin mixture 5mL, and
(§19) finally add DMEM high-sugar medium solution to 500mL, that is, to obtain.
(§20) (4) PC12 Cell Recover. Quickly remove the cells from the -80 °C freezer, shake
in a 37 °C water bath pot to dissolve quickly, disinfect the cryopreservation tube and
transfer it to the ultra-clean table, transfer the cryopreservation in the cryopreservation
tube to a 15 mL centrifuge tube, add 3 mL of complete medium, gently blow well
with a pipette, centrifuge at 1000 *g at room temperature for 5 min, discard the upper
layer of medium, add 4 mL complete medium again, gently blow well and transfer to
the culture flask, transfer to the incubator at 37 °C, 5% CO2, saturation humidity, and
change the liquid every other day.
(5) PC12 Cell Passage. During the logarithmic growth phase of cell growth, add
complete medium to stop digestion, transfer to a 15 mL centrifuge tube, centrifuge at
1000 *g at room temperature for 5 min, discard the upper layer medium, 1:4
(7) Preparation of sample solutions. […]
Series [5] is described as follows: Stability in artificial gastrointestinal fluids. The class given is in vitro ADME. The note with it: 37 °C. As to the method:
Based on the above data, 5a was chosen to evaluate the stabilities by artificial gastrointestinal solution, blood plasma, and rat liver microsomes.
Cell viability(%) = (Asample-Ablank)/(Acontrol-Ablank) ×100%. Asample, Ablank and Acontrol
medium, or vehicle, respectively.
method described in China Pharmacopoeia (version 2015). The artificial gastric fluid
described above without pepsin and trypsin. Compound 5a (1 mg/mL, n = 3) was
Supernatant was collected by
were processed by GraphPad Prism 8.0 software.
Solution B (25 mL) contained

The subject of a further series is BV-2 cells. Briefly: Cytotoxicity on BV-2 cells, CCK-8 assay. The class given is cell-based. The note with it: at 10 μM. As to the method: 5a was chosen to evaluate the anti-inflammation property through testing the production of IL-1β, IL-6, and NO in LPS-induced BV-2 cells[25]^,[26]. First of all, the cytotoxicity of 5a was determined through the CCK-8 assay.
2.1 Inhibition experiments of AChE and BuChE. The modified Ellman method was performed to test the AChE and BChE inhibitory ability of the compounds, using eeAChE and eqBChE (Sigma-Aldrich Co.). The detailed procedure referenced our […]
2.2 Anti-inflammatory property. BV-2 cells were cultured in DMEM containing 10% fetal bovine serum, 100 U/mL penicillin, 100 U/mL streptomycin, and 1% nonessential amino acid at 37℃ with 5% CO2.
BV-2 cells in logarithmic growth stage were digested and centrifuged, and then resuspended in DMEM medium containing 1% penicillin-streptomycin and 10% fetal bovine serum. The cells was adjusted to 1.2 × 10^4 cells/well, and then seeded evenly in 96-well cell culture plates. The cells were incubated for 36 h at 37℃ with 5% CO2. […]
BV-2 cells (2 × 10^5 cells/well) were seeded in a 24-well cell culture plates. […] The content of NO in cell culture supernatant was determined by Griess method, and the levels of cytokines IL-6 and IL-1β in cell culture supernatant were determined by IL-6 ELISA kit and IL-1β ELISA kit, respectively.
On the technique in general: Tetrazolium dyes change colour on reduction, which living cells bring about.

A short description of another series: Plasma stability. The format is in vitro ADME. The following applies: rat, n = 3, read-out: t1/2 in blood plasma (converted).
Series [6] has as its system IL-6 production in LPS-stimulated BV-2 cells. Briefly: IL-6 production in LPS-stimulated BV-2 cells (ELISA). The following applies: LPS 1 μg/mL. The class given is cell-based. (In general: An ELISA detects its analyte on a solid surface through an enzyme-linked reagent.)
The nature of series [7]: Rat liver microsomes stability. The class given is in vitro ADME. The following applies: n = 3, read-out: t1/2 in rat liver microsomes. On the technique in general: Microsomes from liver hold many membrane-bound enzymes, among them those of drug oxidation.
Experimental: microsomes was purchased from Dalian Meilun Biotechnology Co., Ltd, DaLian,
China. Briefly, solution A (10 mL) contained G-6-P-Na2 (200 mg), NADPNa2 (200
G-6-P-DH (1000 U), Na-Citrate2 (200 mg), and H2O was used as a solvent. NADPH
solution (1 mM) was composed by solution A and solution B (v/v = 5:1). Compound
was dissolved in DMSO to obtain 1 mg/mL stock solution. Rat liver microsomes was
added to compound solution (the final concentration of compound and rat liver
microsomes was 10 μg/mL and 0.5 mg/mL, respectively) (n = 3). The reaction was
started by the addition of NADPH. The total mixture (200 μL) was incubated at 37 °C.
Cold methanol (600 μL) was added at 0, 5, 15, 20, 30, 45 and 60 min , respectively, to
stop the reaction. Samples were centrifuged at 13000 rpm fo r 10 min at 4 °C, and 100
μL supernatant was removed and analyzed by UPLC-MS/MS. The stability results
were presented as % remaining vs. time.
Another series concerns PC12 cells. Briefly: Cytotoxicity on PC12 cells, CCK-8 assay. The format is cell-based. The following applies: at 30 μM.
The subject of the next series is Kunming mice. Briefly: Acute toxicity (safety profile) in mice. The note with it: 500 mg/kg, intragastric administration.
The subject of series [8] is NO release in LPS-stimulated BV-2 cells. Briefly: NO release in LPS-stimulated BV-2 cells (Griess method). The format is cell-based. The note with it: 1, 3, and 9 μM; LPS 1 μg/mL (model 31.9 μM).
Series [9] has as its system IL-1β production in LPS-stimulated BV-2 cells. Briefly: IL-1β production in LPS-stimulated BV-2 cells (ELISA). The class given is cell-based.
[10] abbreviates: mean ± SD, read-out: IC50 ± SD eeAChE.
[11] abbreviates: mean ± SD, read-out: IC50 ± SD eqBuChE.

Experimental for Kunming mice: gender) were supplied by the Center of Experimental Animals of Sichuan Academy of
Chinese Medicine Sciences (eligibility certiﬁcation no. SCXK-Chuan2018-19). Mice
20−22 °C with a relative humidity of 60−70%. Sterile food and water were provided
according to institutional guidelines. Prior to each experiment, mice were fasted
overnight and allowed free access to water.
1000 mg/kg (n = 6 per group) by intragastric administration. After the administration
occasionally thereafter for 14 days for the onset of any delayed effects. All animals
were sacrificed on the 14th day after drug administration and were macroscopically
Text for PC12 cells: as §4, §5, §6, §7, §8, §9, §10, §11, §12, §13, §14, §15
Jinghai Instrument Co., Ltd).
as §16, §17, §18, §19, §20
in a 37 °C water bath pot to dissolve quickly, disinfect the cryopreservation tube and […]
Experimental for Plasma stability: (3) The stability of compound was performed in rat plasma.
mg/mL) were dissolved in DMSO, and the reaction (10 μg/mL, n = 3) was prepared
by mixing 198 μL plasma with 2 μL compounds solution, then incubated in 37 ◦C and
stopped by adding 600 μL methanol at time of 0, 0.5, 1, 1.5, 2 and 3 h, followed by
centrifugation at 13,000 rpm for 10 min at 4 °C. The supernatant was dried and
redissolved in 100 μL methanol. After centrifugation, the supernatant was analyzed
by UPLC-MS/MS. The stability data was presented as remaining percentage vs time.

Regarding `O=C(O)c1ccc(O)cc1O` [Compound 1a, 2,4-dihydroxybenzoic acid], the inhibition at 25 µM came out at 16.3 ± 0.17% in series [1] and 25.8 ± 0.93% in [2].

Regarding `CCN(C)C(=O)Oc1ccc(C(=O)N2CCC(Cc3ccccc3)CC2)c(OC(=O)N(C)CC)c1` [Compound 5b, 4-(4-Benzylpiperidine-1-carbonyl)-1,3-phenylene bis(ethyl(methyl)carbamate)], the IC50 in [1] came to 6.3 ± 0.41 µM; in series [2] it was 2.6 ± 1.8 µM. Moreover, the SI in series [2] was found to be 2.4.

In the case of `O=C(Oc1ccc(C(=O)N2CCC(Cc3ccccc3)CC2)c(OC(=O)N2CCCC2)c1)N1CCCC1` [Compound 5d, 4-(4-Benzylpiperidine-1-carbonyl)-1,3-phenylene bis(pyrrolidine-1-carboxylate)], the IC50 stood at 22.3 ± 1.8 µM in series [1] (setting [10]) and 8.7 ± 0.93 µM in series [2] (setting [11]). The compound further yielded an SI in series [2] of 2.6.

Compound `COc1cc2c(cc1OC)C(=O)C(CC1CCN(Cc3ccccc3)CC1)C2` (stereo not drawn) [Donepezil, donepezil, reference compound] came in with a Step-down latency in series [3] (donepezil 2.0 mg/kg, scopolamine 2.0 mg/kg (model 42.1 s)) of 144.3 s.

For `CN(C)C(=O)Oc1ccc(OC(=O)N(C)C)c(C(=O)N2CCC(Cc3ccccc3)CC2)c1` [Compound 5f, 2-(4-Benzylpiperidine-1-carbonyl)-1,4-phenylene bis(dimethylcarbamate)], the IC50 amounted to 5.2 ± 0.35 µM in series [1] and 16.3 ± 0.86 µM in series [2]. This compound displayed an SI in [2] of 0.32.

As to `CCN(C)C(=O)Oc1ccc(OC(=O)N(C)CC)c(C(=O)N2CCC(Cc3ccccc3)CC2)c1` [Compound 5g, 2-(4-Benzylpiperidine-1-carbonyl)-1,4-phenylene bis(ethyl(methyl)carbamate)], the IC50 in series [1] came to 4.9 ± 0.68 µM; in series [2], 13.5 ± 0.52 µM. In series [2], this compound had an SI of 0.36.

On to `CCN(C)C(=O)Oc1cccc([C@H](C)N(C)C)c1` [Rivastigmine, rivastigmine, reference compound], for which, on eqBuChE, the “BChE activity (% control)” value is 53.2 % control and 49.8 % control; the BuChE activity recovered is reported as 68.7%; the “Type of inhibition (reversibility)” value is “pseudo-irreversible”; the eqBuChE activity restored entry was “no significant recovery”.

`O=C(O)c1ccccc1O` [SA, Salicylic acid]: the IC50 at cholinesterase was 346 µM.

`CN(C)C(=O)Oc1ccc(C(=O)N2CCC(Cc3ccccc3)CC2)c(OC(=O)N(C)C)c1` [Compound 5a, 4-(4-Benzylpiperidine-1-carbonyl)-1,3-phenylene bis(dimethylcarbamate)]: the viability at 1 µM in [4] worked out at 61.7%. The viability at 3 µM in series [4] is 68.6%. For the same compound, the viability at 9 µM in series [4] amounted to 83.3%. Further, the Residual amount stood at 95.6% in series [5] (after 8 h incubation in artificial gastric juice), 110.6% in [5] (after 8 h incubation in artificial intestinal juice), 99.5% in series [5] (after 8 h incubation in blank gastric juice) and 97.5% in series [5] (after 8 h incubation in blank intestinal juice). Further, the “Cytotoxicity on BV-2 cells” value with BV-2 cells was “did not produce significant cytotoxicity”. Moreover, the half-life at 10 μg/mL in the series “Plasma stability” was 3.25 h; in series [7], 0.32 h. The “Level of IL-6” value in series [6] (5a 3 μM) came to 505.3 pg/mL; in [6] (5a 9 μM), 971.1 pg/mL. The IC50 in series [1] came to 7.8 ± 0.36 µM; in [2], 0.53 ± 0.01 µM. Besides, in series [2], the SI stood at 14.7. Further, the “Cytotoxicity on PC12 cells” value in the series with PC12 cells was “no obvious cytotoxicity”. The “Abnormal behaviour (safety profile)” value in the series with Kunming mice is reported as “did not present abnormal behaviour”. The Step-down latency is 140.1 s in [3] (5a 1.23 mg/kg, scopolamine 2.0 mg/kg); 77.8 s in series [3] (5a 2.45 mg/kg, scopolamine 2.0 mg/kg); 105.2 s in [3] (5a […], scopolamine 2.0 mg/kg). The “Release volume of NO” value in series [8] is listed as “remarkably declined”. Further, the “Level of IL-1β” value in series [9] (5a 1 μM, LPS 1 μg/mL (model 302.7 pg/mL)) is listed as 67.2 pg/mL; in series [9] (5a 3 μM, LPS 1 μg/mL), 90.9 pg/mL; in [9] (5a 9 μM, LPS 1 μg/mL), 163.4 pg/mL. At eqBuChE (0.1 × IC50, at 120 min, Figure 2(B)), this compound had a BuChE activity recovered of 63.9%. The “BChE activity (% control)” value on eqBuChE (1*IC50, Figure 2(A)) turned out to be 48.6 % control; on eqBuChE (diluted to 0.1*IC50, Figure 2(A)), 46.7 % control. The eqBuChE activity restored entry on eqBuChE (after dilution to 0.1 × IC50, text on Figure 2(A)) is “no significant recovery”. In addition, on eqBuChE (from recovery after dilution), the “Type of inhibition (reversibility)” value is recorded as “pseudo-irreversible”.

Turning to `CC(C)N(C(=O)Oc1ccc(OC(=O)N(C(C)C)C(C)C)c(C(=O)N2CCC(Cc3ccccc3)CC2)c1)C(C)C` [Compound 5h, 2-(4-Benzylpiperidine-1-carbonyl)-1,4-phenylene bis(diisopropylcarbamate)], the values for the IC50 in series [1] (setting [10]) and in series [2] (setting [11]) were 8.2 ± 0.67 µM and 16.7 ± 1.2 µM, respectively. The compound also gave an SI in [2] of 0.49.

As for `O=C(O)c1cc(O)ccc1O` [Compound 1b, 2,5-dihydroxybenzoic acid], the figures for the inhibition at 25 µM in series [1] and in series [2] were 20.6 ± 1.2% and 18.2 ± 0.67%, respectively.

Regarding `O=C(Oc1ccc(C(=O)N2CCC(Cc3ccccc3)CC2)c(OC(=O)N2CCOCC2)c1)N1CCOCC1` [Compound 5e, 4-(4-Benzylpiperidine-1-carbonyl)-1,3-phenylene bis(morpholine-4-carboxylate)], the IC50 in series [1] (setting [10]) came to 18.3 ± 0.87 µM; in [2] (setting [11]), 13.1 ± 0.72 µM. The SI in series [2] stood at 1.4.

In the case of `CC(C)N(C(=O)Oc1ccc(C(=O)N2CCC(Cc3ccccc3)CC2)c(OC(=O)N(C(C)C)C(C)C)c1)C(C)C` [Compound 5c, 4-(4-Benzylpiperidine-1-carbonyl)-1,3-phenylene bis(diisopropylcarbamate)], the values for the IC50 in series [1] (setting [10]) and in [2] (setting [11]) were 7.1 ± 0.23 µM and 10.8 ± 0.56 µM, respectively. The SI in series [2] was determined as 0.66.
